Measurements reported in the supplement of paper PMC11616607.

system: HOSE1C; experiment: drug sensitivity score (DSS) from 5-point dose-response viability curve (DSS (area-under-curve based score)); higher = more sensitive (stronger growth inhibition or killing); extreme values may be limits of the assay; conditions: exposure time: 72 h; concentration range: 5 concentrations over 10,000-fold range
In short: (§1)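 Ovarian cancer and normal ovarian cell lines were tested in 384-well plates, with drugs dispensed acoustically (Echo 550) in DMSO or water at five concentrations covering a 10,000-fold range. After 1,500 cells per well were added, plates were incubated for 3 days at 37°C and 5% CO2, and viability was read by CellTiter-Glo luminescence on a PHERAstar FS. Breeze software gave a drug sensitivity score for each cell line and drug, where a higher score means greater sensitivity. A value of zero means no response.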

In order of rising drug sensitivity score:
1. CCOc1ccn(-c2ccc(F)cc2)c(=O)c1C(=O)Nc1ccc(Oc2ccnc(N)c2Cl)c(F)c1  0
2. CCn1c(C(=O)N(C2CC2)C2CC2)cc2c3c(ncn3C)c(Nc3cc(C)n(C)n3)nc21  0
3. C[C@H](Nc1ncnc2[nH]cnc12)c1cc2ccc(F)cc2nc1-c1ccccn1 [AMG319]  0
4. COCCOc1cnc2ccn([C@H](C)c3nnc4c(F)cc(-c5cnn(C)c5)cn34)c(=O)c2c1 [AMG-337]  0
5. CC1CCC(n2c3cnccc3c3cnc(Nc4ccc5c(n4)CCN(C(=O)CO)C5)nc32)CC1 (centres undefined) [AMG-925]  0
6. Cc1cc(Nc2nc(N[C@@H](C)c3ncc(F)cn3)ncc2Cl)[nH]n1 [AZD1480]  0
7. COc1cc2ncnc(Nc3cccc(Cl)c3F)c2cc1OC(=O)N1CCN(C)C[C@H]1C [AZD3759]  0
8. Cc1[nH]nc(C(F)(F)F)c1Cc1sc2c(c1C(=O)N1C[C@](C)(O)CO1)c(=O)n(C)c(=O)n2C(C)C [AZD3965]  0
9. N[C@@H]1CCCN(c2c(/C=C3\SC(=O)NC3=O)cccc2-c2ccccc2)C1 [AZD1208]  0.2
10. Nc1ncnc2c1nc(Cl)n2[C@@H]1O[C@H](CO)[C@@H](O)[C@H]1O [8-chloro-adenosine]  0.5
11. COc1cc2c(cc1OCCCN1CCCC1)N=C(N)C21CCC1 [A-366]  0.8
12. COc1cc(OC2CCN(C)CC2)ccc1Nc1ncc2c(n1)n(C1CCCC1)c(=O)n2C [AZ 3146]  0.9
13. COc1cc(N2CCN(C)CC2)ccc1Nc1nccc(-c2cn(C)c3cnccc23)n1 [AZ191]  1
14. CN(C)CCCOc1ccc(-c2ccc3ncc4c(c3c2)n(C2CCOCC2)c(=O)n4C)cn1 [AZD0156]  1
15. O=C(Nc1c[nH]nc1-c1nc2ccc(CN3CCOCC3)cc2[nH]1)NC1CC1 [AT9283]  2.4
16. O=c1[nH]c(C2CCCN2)nc2c1oc1ccc(Cl)cc12 (centres undefined)  2.6
17. CC/C(=C(\c1ccc(O)cc1)c1ccc(OCCN(C)C)cc1)c1ccccc1 [4-hydroxytamoxifen]  2.7
18. COc1cc(N2CCC(N3CCN(C)CC3)CC2)ccc1Nc1ncnc(Nc2ccccc2S(=O)(=O)C(C)C)n1 [ASP3026]  3.4
19. Nc1ncnc2c1nc(N)n2[C@@H]1O[C@H](CO)[C@@H](O)[C@H]1O [8-amino-adenosine]  4.1
20. C[C@@]1(C(=O)Nc2ccc(F)nc2)CCCN1c1nc(Nc2cc(C3CC3)n[nH]2)c2cccn2n1  8.9
21. Cc1nn(C)c(COc2ccc(N3CCN(S(=O)(=O)N(C)C)CC3)cc2)c1-c1cccc2c(CCCOc3cccc4ccccc34)c(C(=O)O)n(CCN3CCOCC3)c12  13.7
22. COc1ccc(S(=O)(=O)Nc2cccnc2Nc2ccc(O)cc2)cc1 [ABT-751]  15.8
23. O=C(NC1CCNCC1)c1n[nH]cc1NC(=O)c1c(Cl)cccc1Cl [AT7519]  16.6
24. Cc1sc2c(c1C)C(c1ccc(Cl)cc1)=N[C@@H](CC(=O)Nc1ccc(OCCOCCOCCOCCNc3cccc4c3C(=O)N(C3CCC(=O)NC3=O)C4=O)cc1)c1nnc(C)n1-2 (some centres undefined) [ARV-825]  17.3
25. Cc1c(-c2ccc(N3CCc4cccc(C(=O)Nc5nc6ccccc6s5)c4C3)nc2C(=O)O)cnn1CC12CC3CC(CC(C3)C1)C2  20.6
26. CC(C)[C@H](C(=O)Nc1ccc(C(=O)NO)cc1)c1ccccc1 [AR-42]  21.1
27. CC[C@H](CC#N)OC(=O)N[C@@H](C)c1cccc(NC(=O)Nc2ccc(-c3cnco3)c(OC)c2)c1 [AVN944]  25
28. COc1ccc(C[C@H](NC(=O)[C@H](C)NC(=O)CN2CCOCC2)C(=O)N[C@@H](Cc2ccccc2)C(=O)C2(C)CO2)cc1 (stereo in doubt) [ONX-0914]  27.9

system: HOSE2C; experiment: as above; conditions: exposure time: 72 h; concentration range: 5 concentrations over 10,000-fold range
In short: as §1

In order of rising drug sensitivity score:
1. CCOc1ccn(-c2ccc(F)cc2)c(=O)c1C(=O)Nc1ccc(Oc2ccnc(N)c2Cl)c(F)c1  0
2. CCn1c(C(=O)N(C2CC2)C2CC2)cc2c3c(ncn3C)c(Nc3cc(C)n(C)n3)nc21  0
3. COc1cc2c(cc1OCCCN1CCCC1)N=C(N)C21CCC1 [A-366]  0
4. C[C@H](Nc1ncnc2[nH]cnc12)c1cc2ccc(F)cc2nc1-c1ccccn1 [AMG319]  0
5. COCCOc1cnc2ccn([C@H](C)c3nnc4c(F)cc(-c5cnn(C)c5)cn34)c(=O)c2c1 [AMG-337]  0
6. CC1CCC(n2c3cnccc3c3cnc(Nc4ccc5c(n4)CCN(C(=O)CO)C5)nc32)CC1 (centres undefined) [AMG-925]  0
7. CN(C)CCCOc1ccc(-c2ccc3ncc4c(c3c2)n(C2CCOCC2)c(=O)n4C)cn1 [AZD0156]  0
8. N[C@@H]1CCCN(c2c(/C=C3\SC(=O)NC3=O)cccc2-c2ccccc2)C1 [AZD1208]  0
9. COc1cc2ncnc(Nc3cccc(Cl)c3F)c2cc1OC(=O)N1CCN(C)C[C@H]1C [AZD3759]  0
10. Cc1[nH]nc(C(F)(F)F)c1Cc1sc2c(c1C(=O)N1C[C@](C)(O)CO1)c(=O)n(C)c(=O)n2C(C)C [AZD3965]  0
11. O=c1[nH]c(C2CCCN2)nc2c1oc1ccc(Cl)cc12 (centres undefined)  0.9
12. COc1cc(N2CCN(C)CC2)ccc1Nc1nccc(-c2cn(C)c3cnccc23)n1 [AZ191]  1.9
13. COc1cc(OC2CCN(C)CC2)ccc1Nc1ncc2c(n1)n(C1CCCC1)c(=O)n2C [AZ 3146]  2.4
14. Cc1cc(Nc2nc(N[C@@H](C)c3ncc(F)cn3)ncc2Cl)[nH]n1 [AZD1480]  2.8
15. CC/C(=C(\c1ccc(O)cc1)c1ccc(OCCN(C)C)cc1)c1ccccc1 [4-hydroxytamoxifen]  3
16. Nc1ncnc2c1nc(Cl)n2[C@@H]1O[C@H](CO)[C@@H](O)[C@H]1O [8-chloro-adenosine]  3.5
17. Nc1ncnc2c1nc(N)n2[C@@H]1O[C@H](CO)[C@@H](O)[C@H]1O [8-amino-adenosine]  4.9
18. Cc1c(-c2ccc(N3CCc4cccc(C(=O)Nc5nc6ccccc6s5)c4C3)nc2C(=O)O)cnn1CC12CC3CC(CC(C3)C1)C2  5.8
19. COc1cc(N2CCC(N3CCN(C)CC3)CC2)ccc1Nc1ncnc(Nc2ccccc2S(=O)(=O)C(C)C)n1 [ASP3026]  6.4
20. O=C(Nc1c[nH]nc1-c1nc2ccc(CN3CCOCC3)cc2[nH]1)NC1CC1 [AT9283]  7.4
21. Cc1sc2c(c1C)C(c1ccc(Cl)cc1)=N[C@@H](CC(=O)Nc1ccc(OCCOCCOCCOCCNc3cccc4c3C(=O)N(C3CCC(=O)NC3=O)C4=O)cc1)c1nnc(C)n1-2 (some centres undefined) [ARV-825]  7.9
22. O=C(NC1CCNCC1)c1n[nH]cc1NC(=O)c1c(Cl)cccc1Cl [AT7519]  8
23. COc1ccc(S(=O)(=O)Nc2cccnc2Nc2ccc(O)cc2)cc1 [ABT-751]  10.7
24. Cc1nn(C)c(COc2ccc(N3CCN(S(=O)(=O)N(C)C)CC3)cc2)c1-c1cccc2c(CCCOc3cccc4ccccc34)c(C(=O)O)n(CCN3CCOCC3)c12  13.7
25. CC[C@H](CC#N)OC(=O)N[C@@H](C)c1cccc(NC(=O)Nc2ccc(-c3cnco3)c(OC)c2)c1 [AVN944]  15.8
26. CC(C)[C@H](C(=O)Nc1ccc(C(=O)NO)cc1)c1ccccc1 [AR-42]  16.9
27. C[C@@]1(C(=O)Nc2ccc(F)nc2)CCCN1c1nc(Nc2cc(C3CC3)n[nH]2)c2cccn2n1  18.7
28. COc1ccc(C[C@H](NC(=O)[C@H](C)NC(=O)CN2CCOCC2)C(=O)N[C@@H](Cc2ccccc2)C(=O)C2(C)CO2)cc1 (stereo in doubt) [ONX-0914]  21.3

system: JHOS2; experiment: as above; conditions: exposure time: 72 h; concentration range: 5 concentrations over 10,000-fold range
In short: as §1

In order of falling drug sensitivity score:
1. Nc1ncnc2c1nc(N)n2[C@@H]1O[C@H](CO)[C@@H](O)[C@H]1O [8-amino-adenosine]  28.2
2. O=C(NC1CCNCC1)c1n[nH]cc1NC(=O)c1c(Cl)cccc1Cl [AT7519]  18
3. COc1ccc(C[C@H](NC(=O)[C@H](C)NC(=O)CN2CCOCC2)C(=O)N[C@@H](Cc2ccccc2)C(=O)C2(C)CO2)cc1 (stereo in doubt) [ONX-0914]  16.1
4. CC[C@H](CC#N)OC(=O)N[C@@H](C)c1cccc(NC(=O)Nc2ccc(-c3cnco3)c(OC)c2)c1 [AVN944]  9.6
5. Nc1ncnc2c1nc(Cl)n2[C@@H]1O[C@H](CO)[C@@H](O)[C@H]1O [8-chloro-adenosine]  9.4
6. CC(C)[C@H](C(=O)Nc1ccc(C(=O)NO)cc1)c1ccccc1 [AR-42]  7.8
7. COc1ccc(S(=O)(=O)Nc2cccnc2Nc2ccc(O)cc2)cc1 [ABT-751]  7.1
8. Cc1nn(C)c(COc2ccc(N3CCN(S(=O)(=O)N(C)C)CC3)cc2)c1-c1cccc2c(CCCOc3cccc4ccccc34)c(C(=O)O)n(CCN3CCOCC3)c12  6.3
9. Cc1sc2c(c1C)C(c1ccc(Cl)cc1)=N[C@@H](CC(=O)Nc1ccc(OCCOCCOCCOCCNc3cccc4c3C(=O)N(C3CCC(=O)NC3=O)C4=O)cc1)c1nnc(C)n1-2 (some centres undefined) [ARV-825]  4.6
10. COc1cc(N2CCN(C)CC2)ccc1Nc1nccc(-c2cn(C)c3cnccc23)n1 [AZ191]  4.4
11. COc1cc(N2CCC(N3CCN(C)CC3)CC2)ccc1Nc1ncnc(Nc2ccccc2S(=O)(=O)C(C)C)n1 [ASP3026]  4.1
12. O=C(Nc1c[nH]nc1-c1nc2ccc(CN3CCOCC3)cc2[nH]1)NC1CC1 [AT9283]  3.5
13. C[C@@]1(C(=O)Nc2ccc(F)nc2)CCCN1c1nc(Nc2cc(C3CC3)n[nH]2)c2cccn2n1  3.3
14. CC/C(=C(\c1ccc(O)cc1)c1ccc(OCCN(C)C)cc1)c1ccccc1 [4-hydroxytamoxifen]  2.8
15. COc1cc(OC2CCN(C)CC2)ccc1Nc1ncc2c(n1)n(C1CCCC1)c(=O)n2C [AZ 3146]  2.3
16. CC1CCC(n2c3cnccc3c3cnc(Nc4ccc5c(n4)CCN(C(=O)CO)C5)nc32)CC1 (centres undefined) [AMG-925]  0.5
17. N[C@@H]1CCCN(c2c(/C=C3\SC(=O)NC3=O)cccc2-c2ccccc2)C1 [AZD1208]  0.3
18. COc1cc2ncnc(Nc3cccc(Cl)c3F)c2cc1OC(=O)N1CCN(C)C[C@H]1C [AZD3759]  0.2
19. CCOc1ccn(-c2ccc(F)cc2)c(=O)c1C(=O)Nc1ccc(Oc2ccnc(N)c2Cl)c(F)c1  0
20. CCn1c(C(=O)N(C2CC2)C2CC2)cc2c3c(ncn3C)c(Nc3cc(C)n(C)n3)nc21  0
21. Cc1c(-c2ccc(N3CCc4cccc(C(=O)Nc5nc6ccccc6s5)c4C3)nc2C(=O)O)cnn1CC12CC3CC(CC(C3)C1)C2  0
22. O=c1[nH]c(C2CCCN2)nc2c1oc1ccc(Cl)cc12 (centres undefined)  0
23. COc1cc2c(cc1OCCCN1CCCC1)N=C(N)C21CCC1 [A-366]  0
24. C[C@H](Nc1ncnc2[nH]cnc12)c1cc2ccc(F)cc2nc1-c1ccccn1 [AMG319]  0
25. COCCOc1cnc2ccn([C@H](C)c3nnc4c(F)cc(-c5cnn(C)c5)cn34)c(=O)c2c1 [AMG-337]  0
26. CN(C)CCCOc1ccc(-c2ccc3ncc4c(c3c2)n(C2CCOCC2)c(=O)n4C)cn1 [AZD0156]  0
27. Cc1cc(Nc2nc(N[C@@H](C)c3ncc(F)cn3)ncc2Cl)[nH]n1 [AZD1480]  0
28. Cc1[nH]nc(C(F)(F)F)c1Cc1sc2c(c1C(=O)N1C[C@](C)(O)CO1)c(=O)n(C)c(=O)n2C(C)C [AZD3965]  0
